Results: ChEMBL document CHEMBL5210307, “Affinity Biochemical Literature for EUbOPEN Chemogenomics Library wave 3” (2023)
Each block holds one compound with its values, some of them ahead of it.

Experiments:
[1] = target: Fatty-acid amide hydrolase 1 (Homo sapiens, UniProt O00519); test: Affinity Biochemical interaction (Binding assay) EUB0000540a FAAH; set-up: mode of action Negative control for PF-04457845, recommended concentration 1 uM
[2] = target: Calcium/calmodulin-dependent protein kinase kinase 2 (Homo sapiens, UniProt Q96RR4); test: Affinity Biochemical interaction (Enzymatic activity assay) EUB0000168b CAMKK2; set-up: mode of action Negative control for SGC-CAMKK2-1 (UNC-YL-36), recommended concentration 1 uM
Protein AF-9 = target: T1, Protein AF-9 (Homo sapiens, UniProt P42568); test: Affinity Biochemical interaction (AlphaScreen assay) EUB0000283b MLLT3; set-up: mode of action Inhibitor, recommended concentration 1 uM
T1 sequence (P42568 whole entry): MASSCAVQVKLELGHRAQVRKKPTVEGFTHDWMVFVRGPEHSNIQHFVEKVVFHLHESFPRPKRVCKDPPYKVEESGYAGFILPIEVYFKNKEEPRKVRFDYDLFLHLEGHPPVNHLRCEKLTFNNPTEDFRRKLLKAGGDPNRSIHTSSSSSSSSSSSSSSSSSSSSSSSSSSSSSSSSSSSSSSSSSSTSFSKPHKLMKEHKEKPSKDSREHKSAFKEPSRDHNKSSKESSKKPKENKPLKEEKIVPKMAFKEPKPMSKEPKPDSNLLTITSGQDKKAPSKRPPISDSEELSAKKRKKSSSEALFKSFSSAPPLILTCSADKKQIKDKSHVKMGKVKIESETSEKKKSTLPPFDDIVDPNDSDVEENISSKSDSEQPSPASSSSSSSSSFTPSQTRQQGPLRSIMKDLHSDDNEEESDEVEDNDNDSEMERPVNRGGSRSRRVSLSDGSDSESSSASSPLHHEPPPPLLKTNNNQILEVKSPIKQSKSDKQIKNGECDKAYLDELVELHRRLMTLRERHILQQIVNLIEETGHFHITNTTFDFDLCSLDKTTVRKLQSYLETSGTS

Protein ENL = Protein ENL (Homo sapiens, UniProt Q03111); test: Affinity Biochemical interaction (AlphaScreen assay) EUB0000283b MLLT1; set-up: mode of action Inhibitor, recommended concentration 1 uM
[3] = target: T2, Protein farnesyltransferase subunit beta (Homo sapiens, UniProt P49356); test: Affinity Biochemical interaction (Scintillation proximity assay (SPA)) EUB0000736a FNTB; set-up: mode of action Negative control for ABT-100, recommended concentration 1 uM
[4] = target: Transient receptor potential cation channel subfamily A member 1 (Homo sapiens, UniProt O75762); test: Affinity Biochemical interaction (FLIPR-based Ca2+ assay (activated by 30 µM AITC)) EUB0000547a TRPA1; set-up: mode of action Negative control for A-079, recommended concentration 1 uM
[5] = target: Histone acetyltransferase p300 (Homo sapiens, UniProt Q09472); test: Affinity Biochemical interaction (TR-FRET assay (BHC domains)) EUB0000326a EP300
[6] = target: T2, Protein farnesyltransferase subunit beta; test: Affinity Biochemical interaction (Scintillation proximity assay (SPA)) EUB0000289c FNTB; set-up: mode of action Inhibitor, recommended concentration 1 uM
Angiopoietin-1 receptor = Angiopoietin-1 receptor (Homo sapiens, UniProt Q02763); test: Affinity Biochemical interaction (KdELECT (DiscoverX)) EUB0000703a TEK; set-up: mode of action Negative control for BAY-826, recommended concentration 100 nM
[7] = target: Hepatocyte growth factor receptor (Homo sapiens, UniProt P08581); test: Affinity Biochemical interaction (Homogeneous Time Resolved Fluorescence Assay) EUB0000293b MET; set-up: mode of action Inhibitor, recommended concentration 1 uM
[8] = target: 5'-AMP-activated protein kinase catalytic subunit alpha-1 (Homo sapiens, UniProt Q13131); test: Affinity Biochemical interaction (Biochemical PRKAA1 assay (10 µM ATP)) EUB0000707a PRKAA1; set-up: mode of action Negative control for BAY-3827, recommended concentration 100 nM
[9] = target: Sodium/hydrogen exchanger 1 (Homo sapiens, UniProt P19634); test: Affinity Biochemical interaction (pHi change assay) EUB0000545a SLC9A1; set-up: mode of action Negative control for BI-9627, recommended concentration 1 uM
[10] = target: Bifunctional epoxide hydrolase 2 (Homo sapiens, UniProt P34913); test: Affinity Biochemical interaction (Human soluble epoxide hydrolase inhibition) EUB0000541a EPHX2; set-up: mode of action Negative control for BI-1935, recommended concentration 100 nM
Collagenase 3 = Collagenase 3 (Homo sapiens, UniProt P45452); test: Affinity Biochemical interaction (FRET assay) EUB0000727a MMP13; set-up: mode of action Negative control for BI-4394, recommended concentration 100 nM
Integrin alpha-L = Integrin alpha-L (Homo sapiens, UniProt P20701); test: Affinity Biochemical interaction (ITGAL binding assay (inhibition of LFA-1 binding to ICAM-1)) EUB0000549a ITGAL; set-up: mode of action Negative control for BI-1950, recommended concentration 100 nM
Fatty acid synthase = Fatty acid synthase (Homo sapiens, UniProt P49327); test: Affinity Biochemical interaction (Human FAS enzyme assay (measuring consumption of NADPH)) EUB0000738a FASN; set-up: mode of action Negative control for BI 99179, recommended concentration 1 uM
Cannabinoid receptor 1 = Cannabinoid receptor 1 (Homo sapiens, UniProt P21554); test: Affinity Biochemical interaction (Radioligand binding assay (CNR1, inverse agonism)) EUB0000316b CNR1; set-up: mode of action Negative control for MRL-650, recommended concentration 1 uM
[11] = target: Transient receptor potential cation channel subfamily M member 8 (Homo sapiens, UniProt Q7Z2W7); test: Affinity Biochemical interaction (Enzymatic assay) EUB0000546a TRPM8; set-up: mode of action Negative control for PF-05105679, recommended concentration 1 uM

T2 sequence (P49356 whole entry): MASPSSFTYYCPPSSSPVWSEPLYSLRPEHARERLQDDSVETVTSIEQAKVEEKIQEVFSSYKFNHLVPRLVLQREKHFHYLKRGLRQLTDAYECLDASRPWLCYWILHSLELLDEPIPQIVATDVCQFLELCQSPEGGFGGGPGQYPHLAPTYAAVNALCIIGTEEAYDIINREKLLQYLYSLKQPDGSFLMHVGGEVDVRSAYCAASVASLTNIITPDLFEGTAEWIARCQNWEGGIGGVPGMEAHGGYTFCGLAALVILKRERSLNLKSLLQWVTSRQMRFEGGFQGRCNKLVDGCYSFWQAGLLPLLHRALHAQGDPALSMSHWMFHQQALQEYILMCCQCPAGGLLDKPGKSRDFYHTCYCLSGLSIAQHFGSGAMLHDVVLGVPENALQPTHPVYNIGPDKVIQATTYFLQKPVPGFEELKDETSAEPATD
Chain of Fatty acid synthase (P49327 whole entry): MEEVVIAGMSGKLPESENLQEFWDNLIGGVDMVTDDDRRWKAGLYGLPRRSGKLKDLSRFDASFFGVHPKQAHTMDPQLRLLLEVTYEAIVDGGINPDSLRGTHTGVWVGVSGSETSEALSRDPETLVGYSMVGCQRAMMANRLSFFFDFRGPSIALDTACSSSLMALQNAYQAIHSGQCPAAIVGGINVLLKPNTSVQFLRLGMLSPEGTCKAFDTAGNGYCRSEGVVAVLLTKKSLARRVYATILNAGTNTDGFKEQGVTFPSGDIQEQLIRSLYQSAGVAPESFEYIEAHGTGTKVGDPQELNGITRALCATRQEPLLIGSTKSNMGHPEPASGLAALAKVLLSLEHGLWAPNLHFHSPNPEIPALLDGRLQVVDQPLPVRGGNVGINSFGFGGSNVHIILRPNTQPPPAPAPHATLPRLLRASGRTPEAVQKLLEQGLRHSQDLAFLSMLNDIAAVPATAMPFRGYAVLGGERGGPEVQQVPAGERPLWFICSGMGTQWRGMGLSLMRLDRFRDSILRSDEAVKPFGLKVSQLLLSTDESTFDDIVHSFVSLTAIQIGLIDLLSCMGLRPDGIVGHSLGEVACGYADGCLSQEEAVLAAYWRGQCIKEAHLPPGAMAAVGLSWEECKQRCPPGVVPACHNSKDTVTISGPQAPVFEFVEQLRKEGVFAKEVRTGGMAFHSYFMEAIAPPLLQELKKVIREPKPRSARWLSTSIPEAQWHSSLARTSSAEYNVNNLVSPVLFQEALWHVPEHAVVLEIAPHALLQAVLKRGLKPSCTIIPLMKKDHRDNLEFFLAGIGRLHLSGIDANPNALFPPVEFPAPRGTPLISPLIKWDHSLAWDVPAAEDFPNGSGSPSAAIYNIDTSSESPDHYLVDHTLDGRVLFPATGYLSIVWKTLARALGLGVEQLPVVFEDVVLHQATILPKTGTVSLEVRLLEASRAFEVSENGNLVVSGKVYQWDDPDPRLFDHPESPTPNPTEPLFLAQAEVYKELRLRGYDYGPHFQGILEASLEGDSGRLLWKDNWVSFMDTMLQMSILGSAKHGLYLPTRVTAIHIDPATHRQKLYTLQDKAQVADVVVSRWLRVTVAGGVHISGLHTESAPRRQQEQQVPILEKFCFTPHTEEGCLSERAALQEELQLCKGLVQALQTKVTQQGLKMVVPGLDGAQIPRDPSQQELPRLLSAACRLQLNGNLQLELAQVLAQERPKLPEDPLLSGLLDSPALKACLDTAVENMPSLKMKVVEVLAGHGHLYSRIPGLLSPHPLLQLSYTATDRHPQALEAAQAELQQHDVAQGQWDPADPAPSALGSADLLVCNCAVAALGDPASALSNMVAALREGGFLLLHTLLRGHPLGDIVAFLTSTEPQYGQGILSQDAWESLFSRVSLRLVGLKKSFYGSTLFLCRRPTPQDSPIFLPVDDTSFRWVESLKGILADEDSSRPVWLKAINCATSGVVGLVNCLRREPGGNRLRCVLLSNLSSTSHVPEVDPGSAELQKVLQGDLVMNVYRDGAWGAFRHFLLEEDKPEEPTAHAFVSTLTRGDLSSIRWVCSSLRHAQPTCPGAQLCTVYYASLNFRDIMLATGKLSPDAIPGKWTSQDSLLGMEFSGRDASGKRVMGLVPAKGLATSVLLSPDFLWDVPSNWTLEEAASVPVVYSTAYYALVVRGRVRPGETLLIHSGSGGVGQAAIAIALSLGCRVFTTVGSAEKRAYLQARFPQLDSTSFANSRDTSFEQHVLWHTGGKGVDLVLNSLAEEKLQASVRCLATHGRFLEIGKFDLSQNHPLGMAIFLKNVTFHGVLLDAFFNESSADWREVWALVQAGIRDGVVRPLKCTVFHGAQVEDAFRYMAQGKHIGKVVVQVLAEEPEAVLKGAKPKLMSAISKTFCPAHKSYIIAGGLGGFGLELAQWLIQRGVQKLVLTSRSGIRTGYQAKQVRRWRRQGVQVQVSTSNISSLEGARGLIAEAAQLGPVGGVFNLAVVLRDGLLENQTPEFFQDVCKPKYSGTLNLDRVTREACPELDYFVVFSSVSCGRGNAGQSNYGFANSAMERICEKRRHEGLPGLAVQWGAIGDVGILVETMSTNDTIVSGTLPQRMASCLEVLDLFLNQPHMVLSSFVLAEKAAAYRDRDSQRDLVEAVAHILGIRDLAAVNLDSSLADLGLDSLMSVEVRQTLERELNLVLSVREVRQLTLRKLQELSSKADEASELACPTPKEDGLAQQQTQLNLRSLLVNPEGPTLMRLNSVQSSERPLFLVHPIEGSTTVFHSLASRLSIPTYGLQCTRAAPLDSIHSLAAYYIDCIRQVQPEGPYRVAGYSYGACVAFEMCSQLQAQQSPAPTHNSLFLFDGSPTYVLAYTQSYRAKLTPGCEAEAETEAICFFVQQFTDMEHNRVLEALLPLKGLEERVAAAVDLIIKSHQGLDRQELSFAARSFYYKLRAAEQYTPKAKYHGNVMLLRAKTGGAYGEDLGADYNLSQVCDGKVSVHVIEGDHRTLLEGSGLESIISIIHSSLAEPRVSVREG
Chain of Hepatocyte growth factor receptor (P08581 whole entry): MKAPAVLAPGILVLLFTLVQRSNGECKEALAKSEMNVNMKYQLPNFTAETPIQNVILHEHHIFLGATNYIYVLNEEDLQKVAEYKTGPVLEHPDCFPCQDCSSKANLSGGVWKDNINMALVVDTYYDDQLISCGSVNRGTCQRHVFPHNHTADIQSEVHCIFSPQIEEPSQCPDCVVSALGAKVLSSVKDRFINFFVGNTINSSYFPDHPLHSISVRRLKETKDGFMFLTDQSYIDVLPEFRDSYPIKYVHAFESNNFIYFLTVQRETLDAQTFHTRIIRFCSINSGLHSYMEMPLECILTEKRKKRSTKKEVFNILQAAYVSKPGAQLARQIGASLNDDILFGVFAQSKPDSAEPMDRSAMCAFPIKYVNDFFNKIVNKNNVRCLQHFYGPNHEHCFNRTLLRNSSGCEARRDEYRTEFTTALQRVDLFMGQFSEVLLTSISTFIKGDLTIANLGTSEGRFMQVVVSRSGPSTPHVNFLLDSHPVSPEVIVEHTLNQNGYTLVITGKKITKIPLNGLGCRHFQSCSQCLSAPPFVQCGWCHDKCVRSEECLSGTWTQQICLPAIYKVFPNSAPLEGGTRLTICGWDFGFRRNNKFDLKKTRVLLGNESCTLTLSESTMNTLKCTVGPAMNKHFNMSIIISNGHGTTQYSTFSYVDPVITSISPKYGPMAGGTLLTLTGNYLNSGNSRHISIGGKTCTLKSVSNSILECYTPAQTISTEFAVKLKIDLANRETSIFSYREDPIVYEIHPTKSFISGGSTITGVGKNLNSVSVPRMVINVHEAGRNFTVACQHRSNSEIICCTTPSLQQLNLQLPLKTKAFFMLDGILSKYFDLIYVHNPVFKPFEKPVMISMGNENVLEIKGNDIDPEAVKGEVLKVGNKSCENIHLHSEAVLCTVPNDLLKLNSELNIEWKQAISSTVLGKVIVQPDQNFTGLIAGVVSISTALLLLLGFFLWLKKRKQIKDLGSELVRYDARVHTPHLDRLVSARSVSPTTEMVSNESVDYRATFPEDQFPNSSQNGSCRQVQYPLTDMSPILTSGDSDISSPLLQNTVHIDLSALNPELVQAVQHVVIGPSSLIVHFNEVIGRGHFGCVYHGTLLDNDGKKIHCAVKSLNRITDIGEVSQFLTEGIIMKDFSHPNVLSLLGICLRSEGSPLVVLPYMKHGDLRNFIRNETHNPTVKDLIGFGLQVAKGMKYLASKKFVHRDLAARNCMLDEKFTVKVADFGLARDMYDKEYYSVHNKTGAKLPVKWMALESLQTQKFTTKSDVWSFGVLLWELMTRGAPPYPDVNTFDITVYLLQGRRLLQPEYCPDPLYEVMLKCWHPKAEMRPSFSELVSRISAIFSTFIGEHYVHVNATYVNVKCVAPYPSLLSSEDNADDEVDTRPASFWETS
Chain of 5'-AMP-activated protein kinase catalytic subunit alpha-1 (Q13131 whole entry): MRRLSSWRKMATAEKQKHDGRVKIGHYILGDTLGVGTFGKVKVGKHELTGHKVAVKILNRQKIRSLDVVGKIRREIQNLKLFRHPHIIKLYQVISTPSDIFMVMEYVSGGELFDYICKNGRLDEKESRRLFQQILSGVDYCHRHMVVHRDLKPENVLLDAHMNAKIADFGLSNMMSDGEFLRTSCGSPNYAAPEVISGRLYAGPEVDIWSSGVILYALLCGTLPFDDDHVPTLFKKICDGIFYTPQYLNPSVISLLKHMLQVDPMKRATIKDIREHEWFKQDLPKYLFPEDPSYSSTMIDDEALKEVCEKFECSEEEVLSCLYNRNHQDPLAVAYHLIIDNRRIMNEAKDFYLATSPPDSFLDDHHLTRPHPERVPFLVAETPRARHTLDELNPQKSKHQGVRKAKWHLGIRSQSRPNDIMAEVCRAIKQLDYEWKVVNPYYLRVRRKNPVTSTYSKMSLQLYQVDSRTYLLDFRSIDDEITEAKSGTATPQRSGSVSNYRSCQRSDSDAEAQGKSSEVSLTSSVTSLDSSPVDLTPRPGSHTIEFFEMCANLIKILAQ

IC50 [4]: > 100 µM
SMILES: CCC(=N\O)/C(C)=C/c1ccc(F)c(C)c1 [A-226]

IC50 [5]: > 10 µM
SMILES: CNC(=O)Nc1ccc2c(c1)[C@@]1(CC2)OC(=O)N(CC(=O)N(Cc2ccc(F)cc2)[C@@H](C)C(F)(F)F)C1=O [A-486]

Kd (Angiopoietin-1 receptor): > 20 µM
SMILES: Cc1cc(NC(=O)c2cccc(S(F)(F)(F)(F)F)c2)cc(-n2ccn3nc(-c4cccnc4)cc23)c1 [BAY-309]

IC50 [7]: < 1 nM
SMILES: CC1=C(C#N)C(c2ccc3[nH]nc(C)c3c2)C(C#N)=C(C)N1 [BAY-474]

IC50 [8]: > 20 µM
SMILES: CC1=C(C#N)C(c2ccc3c(c2)c(NC(=O)c2ccccc2C)nn3C)C(C#N)=C(C)N1 [BAY-974]

IC50 [11]: > 10 µM
SMILES: C[C@H](c1ccc(F)cc1)N(Cc1ccc(Cl)c(C(=O)O)c1)C(=O)c1cnc2ccccc2c1 [PF-05257137]

Second part, the compound before the results:

SMILES: O=C(Nc1cccnn1)N1CC(C/C=C/c2cncc(Oc3ccc(C(F)(F)F)cn3)n2)C1
IC50 [1]: > 100 µM

SMILES: O=C(O)c1ccc(-c2coc3ncc(-c4ccccc4)cc23)cc1Cl
IC50 [2]: > 27 µM

SMILES: C[C@H]1CCCN1Cc1nc2cc(NC(=O)c3ccc4cnccc4c3)ccc2[nH]1
IC50 (Protein AF-9): 254 nM | IC50 (Protein ENL): 150 nM

SMILES: Cn1cncc1[C@@](O)(COc1ccc(C#N)cc1-c1ccc(OC(F)(F)F)cc1)c1ccc(C#N)cc1 [A-108]
IC50 [3]: > 100 µM

SMILES: Cn1cncc1[C@](O)(COc1ccc(C#N)cc1-c1ccc(OC(F)(F)F)cc1)c1ccc(C#N)cc1 [ABT-100]
IC50 [6]: 0.05 nM

SMILES: CC(=O)N1CCC(c2ccc(C(=O)NC3=NCCN3)cc2C(F)(F)F)CC1 [BI 0054]
IC50 [9]: > 10 µM

SMILES: O=C(Nc1ccc(-n2nc(-c3cccnc3)cc2C(F)(F)F)cn1)c1ccc(-c2ccccc2)c(F)c1 [BI 2049]
IC50 [10]: > 3 µM

SMILES: Cn1nc(C(=O)NCc2ccc(C(=O)O)cc2)cc1-c1ccc2[nH]ccc2c1 [BI 4395]
IC50 (Collagenase 3): > 26 µM

SMILES: C[C@@]1(Cc2ccc(C#N)cc2)C(=O)N(c2cc(Cl)cc(Cl)c2)c2ncc(C(=O)NC3(c4nc(C5CCC5)no4)CC3)n21 [BI 9446]
Kd (Integrin alpha-L): > 1000 nM

SMILES: CCC(=O)N[C@@H]1CC[C@H](C(=O)N(C)c2ccc(-c3nc4ccccc4o3)cc2)C1 [BI 99990]
IC50 (Fatty acid synthase): > 3 µM

SMILES: CC(=O)c1c(NS(C)(=O)=O)c2cc(-c3ccc(Cl)cc3)c(-c3ccc(Cl)cc3Cl)nc2n(C)c1=O [MRL-CB1-NC]
IC50 (Cannabinoid receptor 1): 32.5 nM
